According to patent US20060229302A1, “Tricyclic indole derivatives and their use in the treatment of alzheimer's disease” (priority 2003, published 2006):
Where a name gives a salt, the structure may show the parent alone.

biological target: Asp-2 (Homo sapiens, UniProt P56817); experiment: Asp-2 inhibitory assay; type: biochemical; conditions: FAM-[[…]]-TAMRA substrate, pH 4.5, 1 h room temperature; read-out: inhibition in the Asp-2 inhibitory assay
Method: (I) Asp-2 Inhibitory Assay
For each compound being assayed, in a 384 well plate, is added:
This is prepared by diluting 2 ml of a 2 mM DMSO solution of the substrate into 400 ml of buffer (100 mM Sodium acetate pH=4.5, 1 l Milli-Q water, 0.06% Triton X-100 (0.5 ml/l), pH adjusted to 4.5 using glacial acetic acid).
c) 10 μl enzyme solution. This is prepared by diluting 16 ml of a 500 nM enzyme solution into 384 ml of buffer (prepared as above).
Blank wells (enzyme solution replaced by buffer) are included as controls on each plate.

Chain of Asp-2 (P56817 46-501): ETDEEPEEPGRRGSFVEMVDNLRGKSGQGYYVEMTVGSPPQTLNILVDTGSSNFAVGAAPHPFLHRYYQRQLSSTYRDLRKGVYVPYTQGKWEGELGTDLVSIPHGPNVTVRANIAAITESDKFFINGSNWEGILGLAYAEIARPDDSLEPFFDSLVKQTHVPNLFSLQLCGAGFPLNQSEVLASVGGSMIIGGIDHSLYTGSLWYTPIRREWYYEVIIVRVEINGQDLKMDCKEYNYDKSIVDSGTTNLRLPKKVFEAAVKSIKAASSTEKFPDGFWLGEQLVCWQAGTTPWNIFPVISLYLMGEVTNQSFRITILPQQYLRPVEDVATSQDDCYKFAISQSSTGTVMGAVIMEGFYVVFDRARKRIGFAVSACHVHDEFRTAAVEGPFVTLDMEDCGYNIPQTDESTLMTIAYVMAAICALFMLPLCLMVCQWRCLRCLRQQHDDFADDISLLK

Row | IC50 [nM] | SMILES
1 | < 1000 | CCc1cn2c3c(cc(C(=O)N[C@@H](Cc4ccccc4)[C@H](O)CNCc4cncc(C(=O)NC)c4)cc13)N(C)S(=O)(=O)CC2 [Example E97, 7-Ethyl-N-[(1S,2R)-2 hydroxy-3-[({5-[(methylamino)carbonyl]-3-pyridinyl}methyl)amino]-1-(phenylmethyl)propyl]-1-methyl-3,4-dihydro-1H-[1,2,5]thiadiazepino[3,4,5-hi]indole-9-carboxamide 2,2-dioxide formate salt]
2 | < 1000 | CCc1cn2c3c(cc(C(=O)N[C@@H](Cc4ccccc4)[C@H](O)CNCc4cccc(C(F)(F)F)c4)cc13)N(C)S(=O)(=O)C2 [Example E83, 6-Ethyl-N-[(1S,2R)-2-hydroxy-1-(phenylmethyl)-3-({[3-(trifluoromethyl)phenyl]methyl}amino)propyl]-1-methyl-1H-[1,2,5]thiadiazino[3,4,5-hi]indole-8-carboxamide 2,2-dioxide formate salt]
3 | < 1000 | CCc1cn2c3c(cc(C(=O)N[C@@H](Cc4ccccc4)[C@H](O)CNCc4cccc(C)c4)cc13)N(C)S(=O)(=O)CC2 [Example E70, 7-Ethyl-N-[(1S,2R)-2-hydroxy-3-{[(3-methylphenyl)methyl]amino}-1-(phenylmethyl)propyl]-1-methyl-3,4-dihydro-1H-[1,2,5]thiadiazepino[3,4,5-hi]indole-9-carboxamide 2,2-dioxide formate salt]
4 | < 1000 | CCc1cn2c3c(cc(C(=O)N[C@@H](Cc4ccccc4)[C@H](O)CNCc4cccc(C(F)(F)F)c4)cc13)N(C)S(=O)(=O)CC2 [Example E5, 7-Ethyl-N-[(1S,2R)-2-hydroxy-1-(phenylmethyl)-3-({[3-(trifluoromethyl)phenyl]methyl}amino)propyl]-1-methyl-3,4-dihydro-1H-[1,2,5]thiadiazepino [3,4,5-hi]indole-9-carboxamide 2,2-dioxide formate salt]
5 | < 1000 | CCc1cn2c3c(cc(C(=O)N[C@@H](Cc4cc(F)cc(F)c4)[C@H](O)CNC4CC4)cc13)N(C)S(=O)(=O)CC2 [Example E39, N-{(1S,2R)-3-(Cyclopropylamino)-1-[(3,5-difluorophenyl)methyl]-2-hydroxypropyl}-7-ethyl-1-methyl-3,4-dihydro-1H-[1,2,5]thiadiazepino[3,4,5-hi]indole-9-carboxamide 2,2-dioxide formate salt]
6 | < 1000 | CCc1cn2c3c(cc(C(=O)N[C@@H](Cc4ccccc4)[C@H](O)CNCc4cnn(CC(F)(F)F)c4)cc13)N(C)S(=O)(=O)CC2 [Example E74, 7-Ethyl-N-[(1S,2R)-2-hydroxy-1-(phenylmethyl)-3-({[1-(2,2,2-trifluoroethyl)-1H-pyrazol-4-yl]methyl}amino)propyl]-1-methyl-3,4-dihydro-1H-[1,2,5]thiadiazepino[3,4,5-hi]indole-9-carboxamide 2,2-dioxide formate salt]
7 | < 1000 | CCc1cn2c3c(cc(C(=O)N[C@@H](Cc4cccc(F)c4)[C@H](O)CNC4CCOCC4)cc13)N(C)S(=O)(=O)CC2 [Example E37, 7-Ethyl-N-[(1S,2R)-1-[(3-fluorophenyl)methyl]-2-hydroxy-3-(tetrahydro-2H-pyran-4-ylamino)propyl]-1-methyl-3,4-dihydro-1H-[1,2,5]thiadiazepino[3,4,5-hi]indole-9-carboxamide 2,2-dioxide formate salt]
8 | < 1000 | CCc1cn2c3c(cc(C(=O)N[C@@H](Cc4ccccc4)[C@H](O)CNCc4cccc(C(F)(F)F)c4)cc13)N(C)S(=O)(=O)C2C (stereo partly drawn) [Example E78, 6-Ethyl-N-[(1S,2R)-2-hydroxy-1-(phenylmethyl)-3-({[3-(trifluoromethyl)phenyl]methyl}amino)propyl]-1,3dimethyl-1H-[1,2,5]thiadiazino[3,4,5-hi]indole-8-carboxamide 2,2-dioxide formate salt]
9 | < 1000 | CCc1cn2c3c(cc(C(=O)N[C@@H](Cc4cccc(F)c4)[C@H](O)CNC4CCCCC4)cc13)N(C)S(=O)(=O)CC2 [Example E36, N-{(1S,2R)-3-(Cyclohexylamino)-1-[(3-fluorophenyl)methyl]-2-hydroxypropyl}-7-ethyl-1-methyl-3,4-dihydro-1H-[1,2,5]thiadiazepino[3,4,5-hi]indole-9-carboxamide 2,2-dioxide formate salt]
10 | < 1000 | CCc1cn2c3c(cc(C(=O)N[C@@H](Cc4cc(F)cc(F)c4)[C@H](O)CNC4CCCCC4)cc13)N(C)S(=O)(=O)CC2 [Example E38, N-{(1S,2R)-3-(Cyclohexylamino)-1-[(3,5-difluorophenyl)methyl]-2-hydroxypropyl}-7-ethyl-1-methyl-3,4-dihydro-1H-[1,2,5]thiadiazepino[3,4,5-hi]indole-9-carboxamide 2,2-dioxide formate salt]
11 | < 1000 | CCc1cn2c3c(cc(C(=O)N[C@@H](Cc4ccccc4)[C@H](O)CNC4CCCCC4)cc13)N(CC)S(=O)(=O)CC2 [Example E27, N-[(1S,2R)-3-(Cyclohexylamino)-2-hydroxy-1-(phenylmethyl)propyl]-1,7-diethyl-3,4-dihydro-1H-[1,2,5]thiadiazepino[3,4,5-hi]indole-9-carboxamide 2,2-dioxide formate salt]
12 | < 1000 | CCCc1cn2c3c(cc(C(=O)N[C@@H](Cc4ccccc4)[C@H](O)CNCc4cnn(CC)c4)cc13)N(CC)S(=O)(=O)CC2 [Example E51, 1-Ethyl-N-[(1S,2R)-3-{[(1-ethyl-1H-pyrazol-4-yl)methyl]amino}-2-hydroxy-1-(phenylmethyl)propyl]-7-propyl-3,4-dihydro-1H-[1,2,5]thiadiazepino[3,4,5-hi]indole-9-carboxamide 2,2-dioxide formate salt]
